Measurements as given in US20050197350A1, “Novel quinoline, tetrahydroquinazoline, and pyrimidine derivatives and methods of treatment related to the use thereof” (TAISHO PHARMACEUTICAL CO., LTD., priority 2003, published 2005).

The compounds below were run on MCH receptors (assay: MCH receptor activity class (method not given)). Conditions: MCH receptor activity class 1-3 (percent of control at 10^-7 M or IC50).

**Q.** For `Cc1ccccc1NC(=O)NC[C@H]1CC[C@@H](Nc2cc(N(C)C)c3ccccc3n2)CC1` [compound 2368], which class is on record?
**A.** 3 (Class 3 The value of percent of control at 10^−7 M was more than 60% or the value of IC50 was more than 200 nM.)

**Q.** `CN(C)c1cc(N[C@H]2CC[C@@H](CNC(=O)Nc3c(Cl)cc(Cl)cc3Cl)CC2)nc2ccccc12` [compound 2369, N-[(cis-4-{[4-(dimethylamino)quinolin-2-yl]amino}cyclohexyl)methyl]-N′-(2,4,6-trichlorophenyl)urea] was tested. Which class did it give?
**A.** 1 (Class 1: The value of percent of control at 10^−7 M was less than 40% or the value of IC50 was less than 50 nM.)

**Q.** For `CN(C)c1cc(N[C@H]2CC[C@@H](CNC(=O)Nc3c(F)cc(Br)cc3Br)CC2)nc2ccccc12` [compound 2371, N-(2,4-dibromo-6-fluorophenyl)-N′-[(cis-4-{[4-(dimethylamino)quinolin-2-yl]amino}cyclohexyl)methyl]urea], which class is on record?
**A.** 1 (Class 1: The value of percent of control at 10^−7 M was less than 40% or the value of IC50 was less than 50 nM.)

**Q.** `CCc1cccc(CC)c1NC(=O)NC[C@H]1CC[C@@H](Nc2cc(N(C)C)c3ccccc3n2)CC1` [compound 2372] was tested. Which class did it give?
**A.** 2 (Class 2: The value of percent of control at 10^−7 M was from 40% to 60% or the value of IC′50 was from 50 nM to 200 nM.)

**Q.** For `CN(C)c1cc(N[C@H]2CC[C@@H](CNC(=O)Nc3c(Cl)cccc3C(F)(F)F)CC2)nc2ccccc12` [compound 2373], which class is on record?
**A.** 2 (Class 2: The value of percent of control at 10^−7 M was from 40% to 60% or the value of IC′50 was from 50 nM to 200 nM.)

**Q.** How did the class turn out when `Cc1cccc(Cl)c1NC(=O)NC[C@H]1CC[C@@H](Nc2cc(N(C)C)c3ccccc3n2)CC1` [compound 2374] was run?
**A.** 3 (Class 3 The value of percent of control at 10^−7 M was more than 60% or the value of IC50 was more than 200 nM.)

**Q.** How did the class turn out when `CN(C)c1cc(N[C@H]2CC[C@@H](CNC(=O)NCc3ccccc3Cl)CC2)nc2ccccc12` [compound 2375] was run?
**A.** 3 (Class 3 The value of percent of control at 10^−7 M was more than 60% or the value of IC50 was more than 200 nM.)

**Q.** For `CCc1cccc(C(C)C)c1NC(=O)NC[C@H]1CC[C@@H](Nc2cc(N(C)C)c3ccccc3n2)CC1` [compound 2376, N-[(cis-4-{[4-(dimethylamino)quinolin-2-yl]amino}cyclohexyl)methyl]-N′-(2-ethyl-6-isopropylphenyl)urea], which class is on record?
**A.** 1 (Class 1: The value of percent of control at 10^−7 M was less than 40% or the value of IC50 was less than 50 nM.)

**Q.** How did the class turn out when `CCc1ccccc1NC(=O)NC[C@H]1CC[C@@H](Nc2cc(N(C)C)c3ccccc3n2)CC1` [compound 2377] was run?
**A.** 3 (Class 3 The value of percent of control at 10^−7 M was more than 60% or the value of IC50 was more than 200 nM.)

**Q.** `CN(C)c1cc(N[C@H]2CC[C@@H](CNC(=O)Nc3ccccc3I)CC2)nc2ccccc12` [compound 2378] was tested. Which class did it give?
**A.** 3 (Class 3 The value of percent of control at 10^−7 M was more than 60% or the value of IC50 was more than 200 nM.)

**Q.** With `Cc1cccc(C(C)C)c1NC(=O)NC[C@H]1CC[C@@H](Nc2cc(N(C)C)c3ccccc3n2)CC1` [compound 2379] as the compound, how does the class read?
**A.** 2 (Class 2: The value of percent of control at 10^−7 M was from 40% to 60% or the value of IC′50 was from 50 nM to 200 nM.)

**Q.** `CC(C)c1ccccc1NC(=O)NC[C@H]1CC[C@@H](Nc2cc(N(C)C)c3ccccc3n2)CC1` [compound 2380] was tested. Which class did it give?
**A.** 3 (Class 3 The value of percent of control at 10^−7 M was more than 60% or the value of IC50 was more than 200 nM.)

**Q.** With `Cc1c(NC(=O)NC[C@H]2CC[C@@H](Nc3cc(N(C)C)c4ccccc4n3)CC2)cccc1[N+](=O)[O-]` [compound 2381, N-[(cis-4-{[4-(dimethylamino)quinolin-2-yl]amino}cyclohexyl)methyl]-N′-(2-methyl-3-nitrophenyl)urea] as the compound, how does the class read?
**A.** 2 (Class 2: The value of percent of control at 10^−7 M was from 40% to 60% or the value of IC′50 was from 50 nM to 200 nM.)

**Q.** Which class does the source give for `CCCc1ccccc1NC(=O)NC[C@H]1CC[C@@H](Nc2cc(N(C)C)c3ccccc3n2)CC1` [compound 2382] here?
**A.** 3 (Class 3 The value of percent of control at 10^−7 M was more than 60% or the value of IC50 was more than 200 nM.)

**Q.** How did the class turn out when `Cc1cccc(C(C)(C)C)c1NC(=O)NC[C@H]1CC[C@@H](Nc2cc(N(C)C)c3ccccc3n2)CC1` [compound 2383, N-(2-tert-butyl-6-methylphenyl)-N′-[(cis-4-{[4-(dimethylamino)quinolin-2-yl]amino}cyclohexyl)methyl]urea] was run?
**A.** 1 (Class 1: The value of percent of control at 10^−7 M was less than 40% or the value of IC50 was less than 50 nM.)

**Q.** For `CN(C)c1cc(N[C@H]2CC[C@@H](CNC(=O)Nc3ccccc3C(C)(C)C)CC2)nc2ccccc12` [compound 2384], which class is on record?
**A.** 1 (Class 1: The value of percent of control at 10^−7 M was less than 40% or the value of IC50 was less than 50 nM.)

**Q.** `Cc1c(Cl)cccc1NC(=O)NC[C@H]1CC[C@@H](Nc2cc(N(C)C)c3ccccc3n2)CC1` [compound 2385] was tested. Which class did it give?
**A.** 3 (Class 3 The value of percent of control at 10^−7 M was more than 60% or the value of IC50 was more than 200 nM.)

**Q.** `CN(C)c1cc(N[C@H]2CC[C@@H](CNC(=O)Nc3c(F)cc(Br)cc3F)CC2)nc2ccccc12` [compound 2386] was tested. Which class did it give?
**A.** 3 (Class 3 The value of percent of control at 10^−7 M was more than 60% or the value of IC50 was more than 200 nM.)

**Q.** `CN(C)c1cc(N[C@H]2CC[C@@H](CNC(=O)Nc3ccc(Cl)cc3C(F)(F)F)CC2)nc2ccccc12` [compound 2387] was tested. Which class did it give?
**A.** 3 (Class 3 The value of percent of control at 10^−7 M was more than 60% or the value of IC50 was more than 200 nM.)

**Q.** `CN(C)c1cc(N[C@H]2CC[C@@H](CNC(=O)Nc3ccc(C#N)cc3)CC2)nc2ccccc12` [compound 2388] was tested. Which class did it give?
**A.** 3 (Class 3 The value of percent of control at 10^−7 M was more than 60% or the value of IC50 was more than 200 nM.)

**Q.** How did the class turn out when `CN(C)c1cc(N[C@H]2CC[C@@H](CNC(=O)NC(c3ccccc3)c3ccccc3)CC2)nc2ccccc12` [compound 2389, N-[(cis-4-{[4-(dimethylamino)quinolin-2-yl]amino}cyclohexyl)methyl]-N′-(diphenylmethyl)urea] was run?
**A.** 2 (Class 2: The value of percent of control at 10^−7 M was from 40% to 60% or the value of IC′50 was from 50 nM to 200 nM.)

**Q.** Which class does the source give for `Cc1cc(Br)cc(C)c1NC(=O)NC[C@H]1CC[C@@H](Nc2cc(N(C)C)c3ccccc3n2)CC1` [compound 2390, N-(4-bromo-2,6-dimethylphenyl)-N′-[(cis-4-{[4-(dimethylamino)quinolin-2-yl]amino}cyclohexyl)methyl]urea] here?
**A.** 1 (Class 1: The value of percent of control at 10^−7 M was less than 40% or the value of IC50 was less than 50 nM.)

**Q.** `Cc1noc(-c2ccccc2)c1NC(=O)NC[C@H]1CC[C@@H](Nc2cc(N(C)C)c3ccccc3n2)CC1` [compound 2391] was tested. Which class did it give?
**A.** 3 (Class 3 The value of percent of control at 10^−7 M was more than 60% or the value of IC50 was more than 200 nM.)

**Q.** `Cc1cc(NC(=O)NC[C@H]2CC[C@@H](Nc3cc(N(C)C)c4ccccc4n3)CC2)c(C(F)(F)F)o1` [compound 2392] was tested. Which class did it give?
**A.** 3 (Class 3 The value of percent of control at 10^−7 M was more than 60% or the value of IC50 was more than 200 nM.)

**Q.** Which class does the source give for `CN(C)c1cc(N[C@H]2CC[C@@H](CNC(=O)Nc3cc(Cl)cc(Cl)c3)CC2)nc2ccccc12` [compound 2393] here?
**A.** 3 (Class 3 The value of percent of control at 10^−7 M was more than 60% or the value of IC50 was more than 200 nM.)

**Q.** For `CN(C)c1cc(N[C@H]2CC[C@@H](CNC(=O)Nc3cccc(Cl)c3Cl)CC2)nc2ccccc12` [compound 2394], which class is on record?
**A.** 2 (Class 2: The value of percent of control at 10^−7 M was from 40% to 60% or the value of IC′50 was from 50 nM to 200 nM.)

**Q.** With `Cc1ccc(NC(=O)NC[C@H]2CC[C@@H](Nc3cc(N(C)C)c4ccccc4n3)CC2)cc1` [compound 2395] as the compound, how does the class read?
**A.** 3 (Class 3 The value of percent of control at 10^−7 M was more than 60% or the value of IC50 was more than 200 nM.)

**Q.** With `CC(C)c1cccc(C(C)C)c1NC(=O)NC[C@H]1CC[C@@H](Nc2cc(N(C)C)c3ccccc3n2)CC1` [compound 2396] as the compound, how does the class read?
**A.** 1 (Class 1: The value of percent of control at 10^−7 M was less than 40% or the value of IC50 was less than 50 nM.)

**Q.** For `Cc1ccc([N+](=O)[O-])c(NC(=O)NC[C@H]2CC[C@@H](Nc3cc(N(C)C)c4ccccc4n3)CC2)c1C` [compound 2397], which class is on record?
**A.** 3 (Class 3 The value of percent of control at 10^−7 M was more than 60% or the value of IC50 was more than 200 nM.)

**Q.** Which class does the source give for `CN(C)c1cc(N[C@H]2CC[C@@H](CNC(=O)Nc3c(Br)cc(F)cc3Br)CC2)nc2ccccc12` [compound 2398] here?
**A.** 3 (Class 3 The value of percent of control at 10^−7 M was more than 60% or the value of IC50 was more than 200 nM.)

**Q.** With `CN(C)c1cc(N[C@H]2CC[C@@H](CNC(=O)Nc3c(Cl)cccc3Cl)CC2)nc2ccccc12` [compound 2399] as the compound, how does the class read?
**A.** 3 (Class 3 The value of percent of control at 10^−7 M was more than 60% or the value of IC50 was more than 200 nM.)

**Q.** How did the class turn out when `COc1ccc(C)cc1NC(=O)NC[C@H]1CC[C@@H](Nc2cc(N(C)C)c3ccccc3n2)CC1` [compound 2400] was run?
**A.** 3 (Class 3 The value of percent of control at 10^−7 M was more than 60% or the value of IC50 was more than 200 nM.)

**Q.** `Cc1cccc([N+](=O)[O-])c1NC(=O)NC[C@H]1CC[C@@H](Nc2cc(N(C)C)c3ccccc3n2)CC1` [compound 2401] was tested. Which class did it give?
**A.** 3 (Class 3 The value of percent of control at 10^−7 M was more than 60% or the value of IC50 was more than 200 nM.)

**Q.** How did the class turn out when `CN(C)c1cc(N[C@H]2CC[C@@H](CNC(=O)Nc3ccc(F)c(F)c3)CC2)nc2ccccc12` [compound 2402] was run?
**A.** 3 (Class 3 The value of percent of control at 10^−7 M was more than 60% or the value of IC50 was more than 200 nM.)

**Q.** For `CN(C)c1cc(N[C@H]2CC[C@@H](CNC(=O)Nc3cc(F)cc(F)c3)CC2)nc2ccccc12` [compound 2403], which class is on record?
**A.** 3 (Class 3 The value of percent of control at 10^−7 M was more than 60% or the value of IC50 was more than 200 nM.)

**Q.** Which class does the source give for `CN(C)c1cc(N[C@H]2CC[C@@H](CNC(=O)Nc3ccc(F)c(Cl)c3)CC2)nc2ccccc12` [compound 2404] here?
**A.** 3 (Class 3 The value of percent of control at 10^−7 M was more than 60% or the value of IC50 was more than 200 nM.)

**Q.** With `CN(C)c1ccnc(N[C@H]2CC[C@@H](CNC(=O)Nc3ccccc3Cl)CC2)n1` [compound 2405] as the compound, how does the class read?
**A.** 3 (Class 3 The value of percent of control at 10^−7 M was more than 60% or the value of IC50 was more than 200 nM.)
